Laboratory results as given in patent publication US20240239794A1, “PKC-Theta Modulators” (Exscientia AI Limited, priority 2021, published 2024).
Like-named read-outs stand apart in the source and are kept apart here.

Key:
[1] = target: Recombinant human PKC-delta (His-tagged 345-676) (Homo sapiens (Human), UniProt Q05655); test: PKC-delta inhibition assay (HTRF KinEASE kit), PKC-theta/PKC-delta selectivity; assay type: biochemical; details: ratio; for PKC-theta/PKC-delta selectivity: PKC-theta over PKC-delta, HTRF assays; for PKC-theta/PKC-delta selectivity (binned): binned A to G
Sequence of Recombinant human PKC-delta (His-tagged 345-676) (Q05655 345-676): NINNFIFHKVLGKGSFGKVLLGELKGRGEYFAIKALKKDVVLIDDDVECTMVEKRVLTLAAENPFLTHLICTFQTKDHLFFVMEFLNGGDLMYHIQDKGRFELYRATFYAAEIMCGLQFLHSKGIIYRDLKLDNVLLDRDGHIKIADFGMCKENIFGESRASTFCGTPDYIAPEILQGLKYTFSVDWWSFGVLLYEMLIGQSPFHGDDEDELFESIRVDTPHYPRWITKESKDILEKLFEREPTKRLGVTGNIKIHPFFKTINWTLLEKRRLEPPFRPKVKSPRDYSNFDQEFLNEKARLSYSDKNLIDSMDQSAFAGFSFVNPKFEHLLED
Summary of the method: (§1)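 HTRF KinEASE kinase assay, buffer supplemented with 10 mM MgCl2, 1 mM DTT, 0.1% Tween 20; enzyme at 10 ng/ml preincubated 30 min on ice with compound. PKC-theta: 525 nM STK substrate, 6.5 μM ATP, 30 min at 25° C; PKC-delta: 243 nM substrate, 5.7 μM ATP, 20 min. IC50 from 4-parameter fit of 10-dose series.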

[2] = target: Recombinant human PKC-theta (His-tagged 362-706) (Homo sapiens (Human), UniProt Q04759); test: PKC-theta inhibition assay (HTRF KinEASE kit); assay type: biochemical; details: ATP 6.5 μM; for IC50: binned A to H, read-out: PKC-theta HTRF pIC50 (binned) (converted)
Sequence of Recombinant human PKC-theta (His-tagged 362-706) (Q04759 362-706): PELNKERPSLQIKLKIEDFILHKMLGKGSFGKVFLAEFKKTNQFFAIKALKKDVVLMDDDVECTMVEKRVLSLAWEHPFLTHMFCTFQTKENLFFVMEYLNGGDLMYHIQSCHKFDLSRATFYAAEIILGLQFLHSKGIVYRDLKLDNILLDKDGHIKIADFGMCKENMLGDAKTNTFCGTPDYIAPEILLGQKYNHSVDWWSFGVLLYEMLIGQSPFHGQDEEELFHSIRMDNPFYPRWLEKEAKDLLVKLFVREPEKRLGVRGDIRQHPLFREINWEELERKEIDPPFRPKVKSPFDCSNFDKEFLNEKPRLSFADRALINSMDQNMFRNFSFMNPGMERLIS
Summary of the method: as §1

[3] = system: IL-2 secretion by human effector memory T cells (TEM); test: Effector memory T cells IL-2 release assay; assay type: cell-based; details: T-cell, human CD4+ TEM cells, CD3/CD28 bead stimulation, 24 h
Summary of the method: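 Human CD4+ effector memory T cells (negatively sorted from donor PBMC), 5,000 per well, stimulated with CD3/CD28 beads and 10 semi-log compound doses for 24 h at 37° C, 0.1% DMSO. Supernatant IL-2 measured by HTRF; IC50 from 4-parameter logistic fit; viability checked by flow cytometry.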

[4] = binned A to G, read-out: PKC-theta IL2 pIC50 (binned) (converted)
[5] = read-out: PKC-theta IL2 pIC50 (converted)

PKC-theta/PKC-delta selectivity [1]	PKC-theta/PKC-delta selectivity (binned) [1]	PKC-theta HTRF pIC50 [2]	IC50 [2] [nM]	IC50 [3, 4] [nM]	IC50 [3, 5] [nM]	SMILES
11	D (D means a ratio of between 10 and 20)	7.7	10 to 31.6	316 to 1000	501	CC1(C)C(=O)Nc2nccc(-c3nn(C[C@]4(C)COCCN4)c4ccccc34)c21 [Example 109]
29	C (C means a ratio of between 20 and 30)	7.6	10 to 31.6	> 1000	1000	CC1(C)C(=O)Nc2nccc(-c3nn(C[C@]4(C)COCCN4)c4cc(F)ccc34)c21 [Example 110]
7	E (E means a ratio of between 5 and 10)	8.0	10 to 31.6	316 to 1000	398	CC1(O)C(=O)Nc2nccc(-c3cn([C@@H]4CCNC4)c4ccccc34)c21 (stereo partly drawn) [Example 111]
22	C (C means a ratio of between 20 and 30)	8.5	1 to 3.16	31.6 to 100	63.1	CC1(C)C(=O)Nc2nccc(-c3nn(C4CCNCC4)c4cc(F)ccc34)c21 [Example 112]
